Results reported in paper PMC6757289, “Design and Characterization of SGK3-PROTAC1, an Isoform Specific SGK3 Kinase PROTAC Degrader” (ACS Chemical Biology, 2019).
Like-named read-outs stand apart in the source and are kept apart here.

Assays:
Assay in all cases: kinase profiling panel
Assay type in all cases: biochemical
Conditions in all cases: read-out: % Activity Remaining
ERK8 = target: T1, ERK8 (Homo sapiens, UniProt Q8TD08)
T1 sequence (Q8TD08 1-544): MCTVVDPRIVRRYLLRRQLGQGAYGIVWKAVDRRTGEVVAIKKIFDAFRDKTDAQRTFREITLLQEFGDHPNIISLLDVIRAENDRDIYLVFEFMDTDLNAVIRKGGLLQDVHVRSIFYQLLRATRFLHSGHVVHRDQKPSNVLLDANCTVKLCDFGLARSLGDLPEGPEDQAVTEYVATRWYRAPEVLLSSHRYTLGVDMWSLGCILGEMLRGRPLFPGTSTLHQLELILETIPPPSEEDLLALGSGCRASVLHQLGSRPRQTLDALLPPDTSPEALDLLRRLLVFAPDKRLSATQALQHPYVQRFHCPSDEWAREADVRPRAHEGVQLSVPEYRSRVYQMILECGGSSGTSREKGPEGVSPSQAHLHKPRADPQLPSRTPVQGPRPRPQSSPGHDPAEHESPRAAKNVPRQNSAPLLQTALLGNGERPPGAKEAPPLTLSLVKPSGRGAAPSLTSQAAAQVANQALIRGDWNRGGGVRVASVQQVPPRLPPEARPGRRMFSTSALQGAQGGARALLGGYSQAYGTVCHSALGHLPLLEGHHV
Excerpt: (§1) Protein kinase profiling against a Dundee panel of 140 protein kinases was undertaken at the International Centre for Protein Kinase Profiling. The result for each kinase was presented as a mean kinase activity of the reaction taken in triplicate relative to a control sample treated with DMSO. Assay conditions and abbreviations are available at http://www.kinase-screen.mrc.ac.uk.

HIPK2 = HIPK2 (Homo sapiens, UniProt Q9H2X6)
Excerpt: as §1

IKK epsilon = target: T2, IKK epsilon (Homo sapiens, UniProt Q14164)
T2 sequence (Q14164 1-716): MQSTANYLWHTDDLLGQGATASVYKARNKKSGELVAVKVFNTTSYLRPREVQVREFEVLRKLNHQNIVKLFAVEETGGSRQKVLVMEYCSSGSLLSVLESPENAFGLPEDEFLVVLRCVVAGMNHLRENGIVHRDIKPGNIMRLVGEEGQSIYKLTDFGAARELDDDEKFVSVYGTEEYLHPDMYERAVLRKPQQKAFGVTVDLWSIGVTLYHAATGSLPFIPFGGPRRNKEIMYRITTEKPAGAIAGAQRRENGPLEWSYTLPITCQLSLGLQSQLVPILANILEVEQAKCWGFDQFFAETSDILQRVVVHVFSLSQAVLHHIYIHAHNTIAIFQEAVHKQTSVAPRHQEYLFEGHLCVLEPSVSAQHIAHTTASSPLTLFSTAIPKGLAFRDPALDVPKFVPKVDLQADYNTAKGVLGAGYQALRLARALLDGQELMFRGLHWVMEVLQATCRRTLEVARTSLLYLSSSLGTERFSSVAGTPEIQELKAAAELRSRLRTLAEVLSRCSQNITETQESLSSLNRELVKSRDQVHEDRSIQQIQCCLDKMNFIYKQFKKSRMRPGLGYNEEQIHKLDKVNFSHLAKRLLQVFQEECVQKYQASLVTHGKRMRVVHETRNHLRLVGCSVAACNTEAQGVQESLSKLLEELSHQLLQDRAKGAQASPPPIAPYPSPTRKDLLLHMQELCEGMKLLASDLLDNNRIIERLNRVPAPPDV
Excerpt: as §1

MARK3 = MARK3 (Homo sapiens, UniProt P27448)
Excerpt: as §1

NEK6 = NEK6 (Homo sapiens, UniProt Q9HC98)
Excerpt: as §1

PIM3 = PIM3 (Homo sapiens, UniProt Q86V86)
Excerpt: as §1

TAO1 = target: T3, TAO1 (Homo sapiens, UniProt Q7L7X3)
T3 sequence (Q7L7X3 1-1001): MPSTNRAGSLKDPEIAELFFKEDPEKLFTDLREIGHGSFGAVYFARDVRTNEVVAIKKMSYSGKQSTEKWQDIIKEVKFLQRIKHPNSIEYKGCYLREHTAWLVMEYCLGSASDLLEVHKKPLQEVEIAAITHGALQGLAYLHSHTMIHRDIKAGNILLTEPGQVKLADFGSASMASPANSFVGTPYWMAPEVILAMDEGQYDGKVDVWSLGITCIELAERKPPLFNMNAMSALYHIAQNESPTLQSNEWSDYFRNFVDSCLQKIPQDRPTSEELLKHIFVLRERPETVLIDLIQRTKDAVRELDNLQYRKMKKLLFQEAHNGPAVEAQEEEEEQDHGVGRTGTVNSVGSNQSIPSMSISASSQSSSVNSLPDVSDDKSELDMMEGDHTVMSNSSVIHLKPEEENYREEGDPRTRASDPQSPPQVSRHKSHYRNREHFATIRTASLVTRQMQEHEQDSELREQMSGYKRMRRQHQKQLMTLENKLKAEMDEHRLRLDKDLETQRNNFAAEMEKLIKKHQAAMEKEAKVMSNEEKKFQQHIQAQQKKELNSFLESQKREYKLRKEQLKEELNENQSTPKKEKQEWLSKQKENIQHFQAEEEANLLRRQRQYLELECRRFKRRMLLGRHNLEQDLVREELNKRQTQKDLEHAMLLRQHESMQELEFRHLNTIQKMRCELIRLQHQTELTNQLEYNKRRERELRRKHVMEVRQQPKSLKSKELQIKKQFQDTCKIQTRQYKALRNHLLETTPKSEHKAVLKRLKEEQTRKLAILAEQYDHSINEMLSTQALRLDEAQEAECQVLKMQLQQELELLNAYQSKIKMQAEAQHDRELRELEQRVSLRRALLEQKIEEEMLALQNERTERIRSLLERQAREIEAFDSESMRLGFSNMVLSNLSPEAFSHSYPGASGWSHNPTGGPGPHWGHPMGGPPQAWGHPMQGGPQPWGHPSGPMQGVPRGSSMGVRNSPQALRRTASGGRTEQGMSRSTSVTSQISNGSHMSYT
Excerpt: as §1

NEK6, sequence (Q9HC98 whole entry): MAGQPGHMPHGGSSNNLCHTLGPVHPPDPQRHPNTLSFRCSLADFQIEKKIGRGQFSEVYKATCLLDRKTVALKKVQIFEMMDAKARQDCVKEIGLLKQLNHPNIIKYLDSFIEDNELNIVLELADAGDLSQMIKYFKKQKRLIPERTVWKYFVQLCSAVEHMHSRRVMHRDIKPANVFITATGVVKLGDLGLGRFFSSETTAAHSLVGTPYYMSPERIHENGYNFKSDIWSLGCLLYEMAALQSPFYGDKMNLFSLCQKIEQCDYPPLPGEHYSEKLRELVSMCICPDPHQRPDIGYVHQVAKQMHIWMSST
MARK3, sequence (P27448 whole entry): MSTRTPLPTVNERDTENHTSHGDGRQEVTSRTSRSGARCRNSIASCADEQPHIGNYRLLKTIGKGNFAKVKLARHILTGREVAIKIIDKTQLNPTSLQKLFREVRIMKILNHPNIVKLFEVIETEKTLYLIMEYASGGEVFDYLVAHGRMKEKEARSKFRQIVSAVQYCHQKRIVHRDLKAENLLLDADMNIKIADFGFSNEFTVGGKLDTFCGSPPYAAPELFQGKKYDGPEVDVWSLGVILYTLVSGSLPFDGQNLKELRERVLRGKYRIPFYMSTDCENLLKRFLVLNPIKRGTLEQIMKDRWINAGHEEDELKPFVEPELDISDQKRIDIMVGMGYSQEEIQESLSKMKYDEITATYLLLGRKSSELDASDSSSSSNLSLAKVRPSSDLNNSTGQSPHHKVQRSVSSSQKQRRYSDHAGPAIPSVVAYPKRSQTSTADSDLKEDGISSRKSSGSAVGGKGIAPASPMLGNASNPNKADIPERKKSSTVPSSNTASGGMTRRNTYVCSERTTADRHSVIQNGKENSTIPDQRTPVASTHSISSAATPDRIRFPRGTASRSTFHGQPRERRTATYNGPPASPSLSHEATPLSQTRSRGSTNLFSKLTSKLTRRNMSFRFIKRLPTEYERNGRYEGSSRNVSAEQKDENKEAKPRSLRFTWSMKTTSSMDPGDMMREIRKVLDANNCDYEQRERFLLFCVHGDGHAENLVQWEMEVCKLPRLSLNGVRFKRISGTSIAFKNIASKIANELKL
HIPK2, sequence (Q9H2X6 whole entry): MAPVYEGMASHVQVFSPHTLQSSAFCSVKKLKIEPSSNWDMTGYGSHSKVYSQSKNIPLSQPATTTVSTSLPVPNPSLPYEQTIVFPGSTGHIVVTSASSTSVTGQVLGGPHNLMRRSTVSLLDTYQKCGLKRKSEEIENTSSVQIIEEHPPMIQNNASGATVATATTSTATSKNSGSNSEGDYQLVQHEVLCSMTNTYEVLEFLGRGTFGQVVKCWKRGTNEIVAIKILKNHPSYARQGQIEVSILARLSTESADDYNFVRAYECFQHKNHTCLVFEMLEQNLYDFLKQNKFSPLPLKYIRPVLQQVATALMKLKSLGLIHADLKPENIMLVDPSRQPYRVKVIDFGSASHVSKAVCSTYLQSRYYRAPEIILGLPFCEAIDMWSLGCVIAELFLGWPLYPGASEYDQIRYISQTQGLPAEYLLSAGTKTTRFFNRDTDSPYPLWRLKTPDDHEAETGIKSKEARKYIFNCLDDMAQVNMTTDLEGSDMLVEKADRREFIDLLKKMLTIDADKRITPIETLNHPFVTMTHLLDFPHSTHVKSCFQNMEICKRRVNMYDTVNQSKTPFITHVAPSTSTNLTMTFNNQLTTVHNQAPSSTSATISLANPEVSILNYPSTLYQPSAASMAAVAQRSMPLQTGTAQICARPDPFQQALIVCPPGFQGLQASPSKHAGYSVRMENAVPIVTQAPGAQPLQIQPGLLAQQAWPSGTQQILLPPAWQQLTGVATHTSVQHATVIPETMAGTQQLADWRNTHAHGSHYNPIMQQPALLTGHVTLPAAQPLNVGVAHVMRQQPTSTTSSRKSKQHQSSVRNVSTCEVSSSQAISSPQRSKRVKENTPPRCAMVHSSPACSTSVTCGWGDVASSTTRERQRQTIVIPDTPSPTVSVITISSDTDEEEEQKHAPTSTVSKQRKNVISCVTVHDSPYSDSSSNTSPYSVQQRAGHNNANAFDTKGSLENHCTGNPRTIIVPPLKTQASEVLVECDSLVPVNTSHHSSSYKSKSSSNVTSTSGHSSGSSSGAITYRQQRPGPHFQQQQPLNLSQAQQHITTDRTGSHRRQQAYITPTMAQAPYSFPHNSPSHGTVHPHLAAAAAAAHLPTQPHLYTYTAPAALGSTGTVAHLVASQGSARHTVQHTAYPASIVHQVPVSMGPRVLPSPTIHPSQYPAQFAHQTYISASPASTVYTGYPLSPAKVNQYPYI

Compound | remaining activity at 1 µM (ERK8; 1 µM) [%] | remaining activity at 1 µM (HIPK2; 1 µM) [%] | remaining activity at 1 µM (IKK epsilon; 1 µM) [%] | remaining activity at 1 µM (MARK3; 1 µM) [%] | remaining activity at 1 µM (NEK6; 1 µM) [%] | remaining activity at 1 µM (PIM3; 1 µM) [%] | remaining activity at 1 µM (TAO1; 1 µM) [%] | remaining activity at 1 µM (ERK8) [%] | remaining activity at 1 µM (HIPK2) [%] | remaining activity at 1 µM (IKK epsilon) [%] | remaining activity at 1 µM (MARK3) [%] | remaining activity at 1 µM (NEK6) [%] | remaining activity at 1 µM (PIM3) [%] | remaining activity at 1 µM (TAO1) [%]
Cc1ccc(F)c(S(=O)(=O)Nc2ccc(-c3nc(OC[C@H]4CN(CCCCCCOCCOCCOCC(=O)N[C@H](C(=O)N5C[C@H](O)C[C@H]5C(=O)NCc5ccc(-c6scnc6C)cc5)C(C)(C)C)CCO4)c4cn[nH]c4n3)cc2)c1 [SGK3-PROTAC1] | 94 | 109 | 108 | 98 | 106 | 88 | 99 |  |  |  |  |  |  | 
Cc1ccc(F)c(S(=O)(=O)Nc2ccc(-c3nc(OC[C@H]4CNCCO4)c4cn[nH]c4n3)cc2)c1 [308-R, reference compound] |  |  |  |  |  |  |  | 49 | 47 | 26 | 103 | 91 | 76 | 123
COc1ccc(Cl)c(S(=O)(=O)Nc2ccc(-c3nc(OC[C@H]4CNCCO4)c4c(C)n[nH]c4n3)cc2)c1 [290-R, reference compound] |  |  |  |  |  |  |  | 18 | 50 | 34 | 89 | 88 | 105 | 110
Cc1ccc(F)c(S(=O)(=O)Nc2ccc(-c3nc(OC[C@H]4CN(CCCCCCOCCOCCOCC(=O)N[C@H](C(=O)N5C[C@@H](O)C[C@H]5C(=O)NCc5ccc(-c6scnc6C)cc5)C(C)(C)C)CCO4)c4cn[nH]c4n3)cc2)c1 [cisSGK3-PROTAC1] | 86 | 100 | 99 | 109 | 111 | 89 | 105 |  |  |  |  |  |  | 
